Organism: Rattus norvegicus
Assay: Inhibition of deethylase activity upon incubation with liver microsomes from phenobarbital induced rats
Assay type: functional

An IC50 of 100 µM was found for `CC(=O)Nc1ccc(OCC(F)(F)F)cc1` in this work.

An IC50 of 230 µM was found for `O=c1ccc2ccc(OCC(F)(F)F)cc2o1` in this work.
